Tests used:
human SGLT1 = target: T1, human SGLT1 (Homo sapiens, UniProt P13866); experiment: Inhibition of methyl-α-D-glucopyranoside (α-MG) uptake in COS-7 cells expressing human SGLT1; type: cell-based; settings: COS-7 cells transiently expressing human SGLT1; 1 mM 14C-α-MG uptake, 37° C., 1 hour
T1 construct: expressed in transfected cells; host or cells: COS-7 cells, transient lipofection (Lipofectamine-2000), vector pcDNA3.1(-)
T1 sequence (P13866 1-664): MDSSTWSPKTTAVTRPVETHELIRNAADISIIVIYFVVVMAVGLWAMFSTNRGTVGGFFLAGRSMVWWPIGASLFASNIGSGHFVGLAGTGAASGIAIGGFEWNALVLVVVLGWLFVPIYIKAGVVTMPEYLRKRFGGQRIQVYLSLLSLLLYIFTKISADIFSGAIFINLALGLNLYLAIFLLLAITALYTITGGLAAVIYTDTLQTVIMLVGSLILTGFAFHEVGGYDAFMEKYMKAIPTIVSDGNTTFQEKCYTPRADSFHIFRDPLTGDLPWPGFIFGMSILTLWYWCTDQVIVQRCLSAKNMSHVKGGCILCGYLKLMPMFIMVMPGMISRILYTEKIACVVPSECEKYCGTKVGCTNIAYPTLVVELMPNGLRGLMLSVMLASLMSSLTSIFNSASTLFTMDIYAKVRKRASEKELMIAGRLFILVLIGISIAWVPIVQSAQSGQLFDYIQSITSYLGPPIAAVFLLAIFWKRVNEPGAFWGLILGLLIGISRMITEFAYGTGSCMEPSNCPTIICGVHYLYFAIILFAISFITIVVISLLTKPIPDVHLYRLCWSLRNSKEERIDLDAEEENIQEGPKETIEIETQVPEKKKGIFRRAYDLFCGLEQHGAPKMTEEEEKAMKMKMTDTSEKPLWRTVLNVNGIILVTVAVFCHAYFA
Procedure: (§1) Assay for Inhibitory Effects on Human SGLT Activity
1) Cloning and Construction of the Vector Expressing Human SGLT1
(§2) The cDNA library was prepared for PCR amplification by reverse transcription from total RNA derived from human small intestine (Ori gene) using oligo-dT as a primer. Using this cDNA library as a template, the DNA fragment coding 1 to 2005 bp of human SGLT1 (ACCESSION: M24847), which was reported by Hediger et al., was amplified by PCR method and inserted into the multi-cloning site of pcDNA3.1(−) (Invitrogen). The DNA sequence inserted was perfectly matched to the previously reported sequence.
(§3) 3) Preparation of the Cells Expressing Human SGLT1 or SGLT2 […]
(§4) A mixture of non-labeled (Sigma) and ^14C-labeled α-MG (Amersham Pharmacia Biotech) was added to the uptake buffer (pH 7.4; containing 140 mM sodium chloride, 2 mM potassium chloride, […] calcium chloride, 1 mM magnesium chloride, 10 mM 2-[4-(2-hydroxyethyl)-1-piperazinyl]ethane sulfonic acid and 5 mM tris(hydroxymethyl)aminomethane) at the final concentration of 1 mM. […] Radioactivity was measured by means of micro-scintillation counter TopCount (Packard). One hundred % was set to the difference between the uptake in the control group and the basal uptake, and the uptake of methyl α-D-glucopyranoside at each drug concentration was calculated. […]

human SGLT2 = target: T2, human SGLT2 (Homo sapiens, UniProt P31639); experiment: Inhibition of methyl-α-D-glucopyranoside (α-MG) uptake in COS-7 cells expressing human SGLT2; type: cell-based; settings: COS-7 cells transiently expressing human SGLT2; 1 mM 14C-α-MG uptake, 37° C., 1 hour
T2 construct: expressed in transfected cells; host or cells: COS-7 cells, transient lipofection (Lipofectamine-2000), vector pcDNA3.1(-)
T2 sequence (P31639 1-672): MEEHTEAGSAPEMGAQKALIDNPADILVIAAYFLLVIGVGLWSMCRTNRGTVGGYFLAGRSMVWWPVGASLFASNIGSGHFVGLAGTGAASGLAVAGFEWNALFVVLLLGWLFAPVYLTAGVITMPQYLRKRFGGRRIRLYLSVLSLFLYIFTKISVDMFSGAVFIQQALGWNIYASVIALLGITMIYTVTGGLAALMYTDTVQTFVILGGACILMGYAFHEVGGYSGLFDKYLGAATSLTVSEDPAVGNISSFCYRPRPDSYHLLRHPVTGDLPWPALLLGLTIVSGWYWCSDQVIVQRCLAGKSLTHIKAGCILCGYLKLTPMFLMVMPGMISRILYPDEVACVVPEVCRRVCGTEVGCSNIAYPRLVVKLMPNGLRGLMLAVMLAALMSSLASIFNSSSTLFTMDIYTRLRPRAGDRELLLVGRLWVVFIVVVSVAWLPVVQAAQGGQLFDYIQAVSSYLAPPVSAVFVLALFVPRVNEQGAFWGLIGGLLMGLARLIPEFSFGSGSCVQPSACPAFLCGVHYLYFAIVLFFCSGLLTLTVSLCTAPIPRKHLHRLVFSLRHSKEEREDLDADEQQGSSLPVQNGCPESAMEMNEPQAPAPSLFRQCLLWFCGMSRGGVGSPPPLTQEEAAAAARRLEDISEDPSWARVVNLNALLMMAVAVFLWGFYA
Procedure: as §1
2) Cloning and Construction of the Vector Expressing Human SGLT2
as §2, with “human kidney” for “human small intestine”, “coding 2” for “coding 1”, “to 2039” for “to 2005”, “human SGLT2” for “human SGLT1”, “(ACCESSION: M95549, M95299),” for “(ACCESSION: M24847),”, “by R. G. Wells” for “by Hediger”
as §3, §4

| Structure (SMILES) | IC50 (human SGLT1) | IC50 (human SGLT2) |
| --- | --- | --- |
| Cc1ccc(Cn2ccc3cccc(O[C@@H]4O[C@H](CO)[C@@H](O)[C@H](O)[C@H]4O)c32)cc1 [Example 1, 7-(1-β-Glucopyranosyloxy)-1-(4-methylbenzyl)-1H-indole] | 235 nM | – |
| OC[C@H]1O[C@@H](Oc2cccc3ccn(CCc4ccccc4)c23)[C@H](O)[C@@H](O)[C@@H]1O [Example 4] | – | 66 nM |
| OC[C@H]1O[C@@H](Oc2cccc3ccn(CCc4ccc(O)cc4)c23)[C@H](O)[C@@H](O)[C@@H]1O [Example 7, 7-(β-D-Glucopyranosyloxy)-1-[2-(4-hydroxyphenyl)ethyl]-1H-indole] | 52 nM | 16 nM |

— US7749972B2, “1-substituted-7-(β-D-glycopyranosyloxy)(aza)indole compound and pharmaceutical containing the same” (Kissei Pharmaceutical Co., Ltd., priority 2005, dated 2010)
